# Like-named read-outs stand apart in the source and are kept apart here. No end group written: not given here.
# Key:
# [1] = test system: RAW264.7 murine macrophages; assay type: cell-based
# Method: All in vitro assays were performed on RAW264.7 murine macrophages (ATCC TIB-71). Cells were grown in Dulbecco’s modified eagle medium (DMEM) supplemented with 10% fetal bovine serum (FBS), L-glutamine, sodium pyruvate, nonessential amino acids, and antibiotics (Biological Industries, Beit Haemek, Israel). The incubator was set on 37 °C with a humidified atmosphere containing 5% CO2.
# One ×10^4 cells per well were grown overnight on a 96-well plate at 37 °C with a humidified atmosphere containing 5% CO2. The following day, the media were replaced with 90 μL fresh culture medium and 10 μL solution buffer containing different concentrations of the different peptides. Peptides were serially diluted in culture medium to concentration ranging from 100 to 0.78 μM. The cells were then incubated for 2 h before adding to each well 50 μL of […] (XTT) reaction solution (Biological Industries). Cell viability was determined as described previously.[52],[54] The LC50 (the concentration at which 50% of the cells die) for each peptide was obtained from the dose-dependent cell viability curves.
# E. coli (ATCC 25922) = assay type: cell-based
# Method: (§1) The antibacterial activity of the peptides was examined in sterile 96-well plates (Nunc 96-well microtiter plates) in a final volume of 100 μL, as follows. Aliquots (50 μL) of a suspension containing bacteria at a concentration of 10^6 colony-forming units/mL in culture medium (LB medium) were added to 50 μL of peptide serially diluted in culture medium (100–0.78 μM). Inhibition of growth was determined by the eye after an incubation of 18–20 h at 37 °C. Antibacterial activities were expressed as the minimal inhibitory concentration (MIC), the concentration at which 100% inhibition of growth was observed after 18–20 h of incubation. In these experiments, we have tested the effect of the peptides on E. coli (ATCC 25922) and Staphylococcus aureus (ATCC 6538P) as representatives of both Gram-negative and Gram-positive bacteria, respectively.
# S. aureus (ATCC 6538P) = assay type: cell-based, Staphylococcus aureus
# Method: as §1
# C57BL/6 mice = assay: In vivo toxicity, i.p. injection; conditions: 100 mg/kg i.p. in 400 μL saline, highest dose tested, female C57BL/6 mice, n = 2, observed 7 days
# Method: Toxicity was tested by i.p. injection of K2(AL)8K2 (100 mg/kg in 400 μL saline) in female C57BL/6 mice (n = 2). Mice were continuously observed for 1 h immediately following injection and once per day for 7 days. To examine the effect of our peptide on acute septic shock driven by LPS hyper-activation of TLR4, we have used murine models as described before.[55],[56] Briefly, 12 weeks old C57BL/6 female mice were treated with 100 ng of LPS injected i.p. in a saline solution (200 μL, pH 6.5) containing 200 mg/mL of D-galactosamine (Calbiochem). Treated mice received one i.p. injection of 10 mg/kg peptide dissolved in saline (200 μL) followed by an injection of LPS. In the second model, heat-killed bacteria were used to induce a lethal septic shock. E. coli cells were grown to a mid-log phase (optical density = 0.5) at 37 °C, cooled on ice, and centrifuged at 1200g for 10 min at 4 °C. The cells were resuspended in saline for a concentration of 2 × 10^9 cells in 200 μL and heated at 95 °C for 30 min. Each animal received an i.p. injection of 2 × 10^9 cells in 200 μL saline followed by an injection of 10 mg/kg peptide dissolved in saline (200 μL). Animals were monitored for survival and signs of sepsis for the next 14 days after LPS injection. For LPS-driven septic shock, n = 8. For heat-killed bacteria, n = 11. […]
# [2] = XTT, cells incubated 2 h with peptide, 100 to 0.78 μM
# [3] = 100% inhibition of growth, by eye, after 18–20 h at 37 °C, LB medium, peptide 100–0.78 μM
Substance,toxicity to macrophages [1],LC50 macrophages RAW 264.7 ([1]; 2 h) [µM],MIC E. coli (ATCC 25922) (E. coli (ATCC 25922); ATCC 25922) [µM],MIC S. aureus (ATCC 6538P) (S. aureus (ATCC 6538P)) [µM],cytotoxicity ([1]; RAW264.7),"LC50 macrophages RAW 264.7 [1, 2] [µM]","toxicity to macrophages ([1]; summary table, yes/no)",toxicity in vivo (C57BL/6 mice),MIC E. coli (ATCC 25922) (E. coli (ATCC 25922); [3]) [µM],MIC S. aureus (ATCC 6538P) (S. aureus (ATCC 6538P); [3]) [µM]
ALALALALALALALALALKK-NH2 [(AL)9K2],no,>100,>100,>100,,,,,,
KALALALALALALALALALK-NH2 [K(AL)9K],no,>100,>100,>100,,,,,,
KALALALKALALKALALALK-NH2 [K(AL)3K(AL)2K(AL)3K],,,25,12.5,moderate toxicity,25,yes,,,
KKALALALALALAKK-NH2 [K2(AL)5AK2],no,>100,>100,>100,,,,,,
KKALALALALALALALALKK-NH2 [K2(AL)8K2],no,>100,>100,>100,,,,no lasting adverse effects were observed,,
KKALALALKK-NH2 [K2(AL)3K2],no,>100,>100,>100,,,,,,
KKAVAVAVAVAVAVAVAVKK-NH2 [K2(AV)8K2],,90,>100,>100,,,,,,
LALALALALALALALALALK-NH2 [L(AL)9K],,,,,,>100,no,,>100,>100

# Reference: PMC11184611, “Development of Nontoxic Peptides for Lipopolysaccharide Neutralization and Sepsis Treatment” (ACS Pharmacology & Translational Science, 2024)
